Experimental data taken from ChEMBL document CHEMBL1150064, “Scoparic acid A, a beta-glucuronidase inhibitor from Scoparia dulcis” (J Nat Prod, 1992).

T1: Beta-glucuronidase (Bos taurus) (UniProt A3KMY8)
T1 sequence (whole entry): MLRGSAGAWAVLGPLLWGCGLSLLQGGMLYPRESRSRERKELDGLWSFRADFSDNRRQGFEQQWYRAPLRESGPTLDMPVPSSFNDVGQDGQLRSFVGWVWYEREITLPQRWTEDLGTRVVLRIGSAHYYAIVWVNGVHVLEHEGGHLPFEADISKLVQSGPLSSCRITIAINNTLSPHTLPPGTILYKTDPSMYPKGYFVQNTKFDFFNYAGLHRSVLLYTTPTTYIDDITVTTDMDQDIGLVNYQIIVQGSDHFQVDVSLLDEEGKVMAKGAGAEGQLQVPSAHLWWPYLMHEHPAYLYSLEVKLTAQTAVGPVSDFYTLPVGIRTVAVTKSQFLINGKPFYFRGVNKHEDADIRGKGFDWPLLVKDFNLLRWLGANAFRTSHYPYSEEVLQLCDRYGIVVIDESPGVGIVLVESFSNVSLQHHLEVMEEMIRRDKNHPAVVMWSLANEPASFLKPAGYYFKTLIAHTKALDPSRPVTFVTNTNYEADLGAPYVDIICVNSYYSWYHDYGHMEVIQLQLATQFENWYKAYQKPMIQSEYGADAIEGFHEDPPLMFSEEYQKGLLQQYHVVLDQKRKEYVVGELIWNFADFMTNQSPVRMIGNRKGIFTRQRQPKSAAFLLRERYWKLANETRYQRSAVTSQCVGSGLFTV

T2: Beta-glucuronidase (Bos taurus, UniProt A3KMY8)
T2 sequence (A3KMY8 whole entry): T1 sequence (whole entry)

B1: Beta-glucuronidase (Bos taurus), A3KMY8 (protein)
chain: T1 sequence (whole entry)

Experiments:
[1] = target: T1, Beta-glucuronidase (Bos taurus); assay: Inhibition of bovine beta-glucuroniase assessed as decrease in enzyme inhibition in presence of BSA; settings: concentration not given here
Beta-glucuronidase = target: T2, Beta-glucuronidase; assay: Inhibition of bovine beta-glucuronidase
[2] = substrate: C=C1C[C@@H](OC(=O)c2ccccc2)[C@@H]2[C@](C)(CCC[C@@]2(C)C(=O)O)[C@@H]1CC/C(C)=C/CO; assay: Activity at bovine beta-glucuroniase by Lineweaver-Burke plot; settings: Bos taurus

Molecule | inhibition [1] [%] | IC50 (Beta-glucuronidase) [µM] | Km [2] [mM]
C=C1C[C@@H](OC(=O)c2ccccc2)[C@@H]2[C@](C)(CCC[C@@]2(C)C(=O)O)[C@@H]1CC/C(C)=C/CO [SCOPARIC ACID A] | 5 | 6.8 | 
C=C1C[C@@H](OC(=O)c2ccccc2)[C@@H]2[C@](C)(CCC[C@@]2(C)C(=O)O)[C@@H]1CCC(C)=O [SCOPARIC ACID B] |  | > 100 | 
C=C(C=O)CC[C@@H]1C(=C)C[C@@H](OC(=O)c2ccccc2)[C@@H]2[C@]1(C)CCC[C@@]2(C)C(=O)O [SCOPARIC ACID C] |  | 10 | 
B1 |  |  | 14.3
